One data set concerns Candida albicans. In words: Minimum inhibitory concentration (MIC), serial dilution in broth, Candida albicans. The class given is cell-based. The following applies: 120 h, read-out: MIC, A = Candida albicans. The method, then: (§1) Solutions of the experimental compounds in dimethyl sulfoxide and an aqueous solution of sodium pyrithione were serially diluted in nutrient broth (Tryptic Soy Broth for bacteria and Sabouraud Dextrose Broth for fungi) in microtiter plates. Equal volumes of a broth suspension of bacteria (10^6 CFU/ml) or fungi (10^5 cells or spores/ml) were added to each dilution, and the plates were incubated at 37° C. (bacteria and yeast) or 28° C. (molds). Bacteria, yeast, and molds were incubated two, five, and seven days respectively before determining the highest inhibitory dilution.

The subject of a further data set is Aureobasidium pullulans. Kind of data set: Minimum inhibitory concentration (MIC), serial dilution in broth, Aureobasidium pullulans. The data set is classed as cell-based. The following applies: 168 h, read-out: MIC, B = Aureobasidium pullulans. The method, then: as §1
The subject of the next data set is Aspergillus niger. Kind of data set: Minimum inhibitory concentration (MIC), serial dilution in broth, Aspergillus niger. The data set is classed as cell-based. Particulars: 168 h, read-out: MIC, C = Aspergillus niger. Here is the method: as §1
Another data set has as its system Fusarium. Kind of data set: Minimum inhibitory concentration (MIC), serial dilution in broth, Fusarium. The data set is classed as cell-based. The following applies: 168 h, read-out: MIC, D = Fusarium. Here is the method:
as §1

The nature of data set [1]: UV stability (photolysis in aqueous solution, immersion well photochemical apparatus). The data set is classed as physicochemical. Here is the method: The UV stability of IIa was evaluated using a immersion well photochemical apparatus equipped with a Hanovia 450 Watt medium pressure lamp. An aqueous solution (100 ppm in KH2 PO4 buffer pH=7) was irradiated at 25° C. with air agitation for a period of 110 minutes. The rate of photolysis was monitored by UV spectroscopy. Aliquots were taken through a side port of the apparatus into an amber vial and the absorption at 325 nm was measured. A sodium pyrithione aqueous solution (i.e., sodium OMADINE® biocide) was irradiated similarly for comparative purposes.

Setting [2] is: yeast, 37° C., five days, Sabouraud Dextrose Broth.
Setting [3] is: fungi, Sabouraud Dextrose Broth, molds: 28° C., seven days.
The mark [4] stands for this setting: molds: 28° C., seven days, Sabouraud Dextrose Broth.

≈ marks a conversion by molar mass, not a printed value. Like-named read-outs stand apart in the source and are kept apart here.

Turning to `CCOC(=O)c1ccccc1N(O)C(=S)Nc1ccccc1` [Ie], the minimal inhibitory concentration (MIC) in the data set with Candida albicans (setting [2]) was 16 mg/L (≈ 50.6 µM); in the data set with Aureobasidium pullulans (setting [3]), 32 mg/L (≈ 101 µM); in the data set on Aspergillus niger (setting [4]), 64 mg/L (≈ 202 µM); in the data set with Fusarium (setting [4]), 64 mg/L (≈ 202 µM).

In the case of `CC(=O)On1c(=S)n(C)c(=O)c2ccccc21` [IIi, 1-ACETOYLOXY-3-METHYL-2-THIOXO-1,2-DIHYDROQUINAZOLINE-4(3H)-ONE], in the data set with Candida albicans (setting [2]), the MIC amounted to 2 mg/L (≈ 7.99 µM).

`Cn1c(=O)c2ccccc2n(OC(=O)c2ccccc2)c1=S` [IIk]: the MIC turned out to be 512 mg/L (≈ 1640 µM) in the data set on Candida albicans (setting [2]), 256 mg/L (≈ 820 µM) in the data set with Aureobasidium pullulans (setting [3]), 512 mg/L (≈ 1640 µM) with Aspergillus niger (setting [4]) and 512 mg/L (≈ 1640 µM) in the data set on Fusarium (setting [4]).

For `C=CC(=O)On1c(=S)n(C)c(=O)c2ccccc21` [Compound IIj], the minimal inhibitory concentration (MIC) in the data set with Candida albicans (setting [2]) was found to be 4 mg/L (≈ 15.3 µM); in the data set on Aureobasidium pullulans (setting [3]), 4 mg/L (≈ 15.3 µM); in the data set with Aspergillus niger (setting [4]), 8 mg/L (≈ 30.5 µM); in the data set with Fusarium (setting [4]), 16 mg/L (≈ 61 µM).

For the compound `Cn1c(=O)c2ccccc2n(OC(=O)O)c1=S` [IIm], the minimum inhibitory concentration (MIC) amounted to 4 mg/L (≈ 15.9 µM) in the data set with Candida albicans (setting [2]), 8 mg/L (≈ 31.7 µM) in the data set with Aureobasidium pullulans (setting [3]), 8 mg/L (≈ 31.7 µM) in the data set with Aspergillus niger (setting [4]) and 16 mg/L (≈ 63.4 µM) in the data set on Fusarium (setting [4]).

Take `C=CCNC(=S)N(O)c1ccccc1C(=O)OCC` [If]: the minimum inhibitory concentration (MIC) with Candida albicans (setting [2]) amounted to 4 mg/L (≈ 14.3 µM); in the data set on Aureobasidium pullulans (setting [3]) it was 16 mg/L (≈ 57.1 µM); in the data set with Aspergillus niger (setting [4]), 16 mg/L (≈ 57.1 µM); in the data set with Fusarium (setting [4]), 16 mg/L (≈ 57.1 µM).

Take `CNC(=S)N(O)c1ccc(C)cc1C(=O)OC` [Id]: the MIC was 8 mg/L (≈ 31.5 µM) in the data set on Candida albicans (setting [2]), 8 mg/L (≈ 31.5 µM) with Aureobasidium pullulans (setting [3]), 8 mg/L (≈ 31.5 µM) in the data set with Aspergillus niger (setting [4]) and 512 mg/L (≈ 2010 µM) with Fusarium (setting [4]).

On to `Cn1c(=O)c2ccc(Cl)cc2n(O)c1=S` [IIc], for which the MIC was below 2 mg/L in the data set on Candida albicans (setting [2]), below 2 mg/L in the data set on Aureobasidium pullulans (setting [3]), 4 mg/L (≈ 16.5 µM) with Aspergillus niger (setting [4]) and 64 mg/L (≈ 264 µM) in the data set with Fusarium (setting [4]).

For `Cn1c(=O)c2ccccc2n(O)c1=S.[Na]` [IIa-Na, 1-hydroxy-3-methyl-2-thioxo-1,2-dihydroquinazoline-4(3H)-one, sodium salt], in the data set on Fusarium, the MIC was found to be 4 mg/L.

Regarding `Cn1c(=O)c2ccccc2n(O)c1=S` [Compound IIa, 1-HYDROXY-3-METHYL-2-THIOXO-1,2-DIHYDROQUINAZOLINE-4(3H)-ONE], the minimum inhibitory concentration (MIC) is below 2 mg/L with Candida albicans (setting [2]), below 2 mg/L in the data set on Aureobasidium pullulans (setting [3]), below 2 mg/L in the data set with Aspergillus niger (setting [4]) and 128 mg/L (≈ 615 µM) in the data set on Fusarium (setting [4]). Further, the half-life in data set [1] (first order, 100 ppm in KH2PO4 buffer pH=7, 25° C., 450 Watt medium pressure lamp, absorption at 325 nm, read-out: photodecomposition T1/2) was found to be 55 min.

Regarding `On1ccccc1=S` [sodium pyrithione, reference compound], the “photodecomposition time (decomposed in)” value in data set [1] (aqueous solution, same conditions as IIa (pH=7, 25° C., 450 Watt lamp)) turned out to be 15 s.

In the case of `CNC(=S)N(O)c1cc(Cl)ccc1C(=O)OC` [Ic], the minimal inhibitory concentration (MIC) with Candida albicans (setting [2]) was below 2 mg/L; with Aureobasidium pullulans (setting [3]), 4 mg/L (≈ 14.6 µM); in the data set with Aspergillus niger (setting [4]), 8 mg/L (≈ 29.1 µM); in the data set with Fusarium (setting [4]), 128 mg/L (≈ 466 µM).

Turning to `Cc1ccc2c(c1)c(=O)n(C)c(=S)n2O` [IId], the MIC in the data set on Candida albicans (setting [2]) was below 2 mg/L; with Aureobasidium pullulans (setting [3]), 4 mg/L (≈ 18 µM); with Aspergillus niger (setting [4]), below 2 mg/L; in the data set on Fusarium (setting [4]) it was 128 mg/L (≈ 576 µM).

`COn1c(=S)n(C)c(=O)c2ccccc21` [IIh]: the minimum inhibitory concentration (MIC) in the data set with Candida albicans (setting [2]) was 256 mg/L (≈ 1150 µM); in the data set on Aureobasidium pullulans (setting [3]), 512 mg/L (≈ 2300 µM); in the data set on Aspergillus niger (setting [4]), 512 mg/L (≈ 2300 µM); in the data set on Fusarium (setting [4]) it was 512 mg/L (≈ 2300 µM).

Regarding `O=c1[nH]c(=S)n(O)c2ccccc12` [Compound IIg], the MIC came to 64 mg/L (≈ 330 µM) in the data set on Candida albicans (setting [2]), 128 mg/L (≈ 659 µM) in the data set with Aureobasidium pullulans (setting [3]), 1020 mg/L (≈ 5270 µM) with Aspergillus niger (setting [4]) and 512 mg/L (≈ 2640 µM) with Fusarium (setting [4]).

In the case of `CNC(=O)On1c(=S)n(C)c(=O)c2ccccc21` [IIn, 1-N-METHYLCARBAMATE-3-METHYL-2-THIO-1,2-DIHYDROQUINAZOLINE-4(3H)-ONE], the MIC amounted to 4 mg/L (≈ 15.1 µM) with Candida albicans, 8 mg/L (≈ 30.2 µM) in the data set with Aureobasidium pullulans, 8 mg/L (≈ 30.2 µM) in the data set on Aspergillus niger and 16 mg/L (≈ 60.3 µM) with Fusarium.

Take `C=CCn1c(=O)c2ccccc2n(O)c1=S` [IIf]: the MIC with Candida albicans (setting [2]) is 4 mg/L (≈ 17.1 µM); in the data set on Aureobasidium pullulans (setting [3]), 16 mg/L (≈ 68.3 µM); with Aspergillus niger (setting [4]) it was 16 mg/L (≈ 68.3 µM); with Fusarium (setting [4]), 8 mg/L (≈ 34.1 µM).

For the compound `O=c1c2ccccc2n(O)c(=S)n1-c1ccccc1` [IIe], the MIC in the data set on Candida albicans (setting [2]) turned out to be 16 mg/L (≈ 59.2 µM); in the data set on Aureobasidium pullulans (setting [3]), 16 mg/L (≈ 59.2 µM); in the data set on Aspergillus niger (setting [4]), 32 mg/L (≈ 118 µM); in the data set on Fusarium (setting [4]), 64 mg/L (≈ 237 µM).

Consider `CCOC(=O)c1ccccc1N(O)C(=S)NC` [Ib], for which the minimal inhibitory concentration (MIC) was determined as 8 mg/L (≈ 31.5 µM) in the data set with Candida albicans (setting [2]), 8 mg/L (≈ 31.5 µM) in the data set with Aureobasidium pullulans (setting [3]), 8 mg/L (≈ 31.5 µM) with Aspergillus niger (setting [4]) and 128 mg/L (≈ 503 µM) in the data set with Fusarium (setting [4]).

Take `C=C(C)C(=O)On1c(=S)n(C)c(=O)c2ccccc21` [IIl]: the minimum inhibitory concentration (MIC) in the data set on Candida albicans (setting [2]) is 128 mg/L (≈ 463 µM); in the data set on Aureobasidium pullulans (setting [3]) it was 4 mg/L (≈ 14.5 µM); in the data set with Aspergillus niger (setting [4]), 32 mg/L (≈ 116 µM); with Fusarium (setting [4]), 512 mg/L (≈ 1850 µM).

One may read the MIC as the least concentration at which growth counts as inhibited.
